The experiment has as its system monosodium urate (MSU) crystal-induced air pouch inflammation. The experiment is described as follows: Air Pouch Model 1: MSU crystal air pouch, rodent model of gout. In kind it is in vivo, male Sprague-Dawley rats. The following applies: for Average Exudate Volume / Average Plasma Extravasation, OD620 nm / Total WBC in Sample / WBC: +MSU, 4 h. On the procedure: The objective of this study was to evaluate the anti-inflammatory affects of tranilast versus a clinically active treatment for gout, colchicine, as well as a clinically active non-steroidal antiinflammatory drug, indomethacin. This evaluation was carried out in male Sprague-Dawley rats in a rodent model of gout. The animals were injected subcutaneously with 20 ml of sterile air, followed three days later by a supplemental injection with 20 ml of sterile air. Six days after the initial sterile air injection, the rats were injected intravenously with Evan's Blue and pretreated for thirty minutes with either a subcutaneous injection of colchicine (1 mg/kg) or indomethacin (5 mg/kg) or oral administration with either 200 mg/kg or 400 mg/kg of tranilast. After the pretreatment period, the rats were injected with 150 mg of monosodium urate (MSU) crystals (10 mg·ml) into the air pouch. Four hours later, the air pouch was injected with 5 ml heparinized saline and the entire contents of the air pouch removed, recording the total volume. The air pouch contents were evaluated for plasma extravasation and total white blood cell (WBC) count.
On day 0 the rats were anesthetized in a biological cabinet, the nape of the neck was cleansed with 70% isopropanol followed by iodine tincture (VEDCO, lot L021976). Twenty ml sterile (0.22 μm, Fisher Scientific, Cat. 09-720-3, lot R5SN25683) air was injected subcutaneously using a 23 G×2 inch needle fixed to a 20 ml syringe. The rats were returned to routine housing. No adverse reactions were observed.
On day 3 the rats were anesthetized in a biological cabinet, the nape of the neck was cleansed with 70% isopropanol followed by iodine tincture (VEDCO, lot L021976). Twenty ml sterile (0.22 μm, Fisher Scientific, Cat. 09-720-3, lot R5SN25683) air was injected subcutaneously using a 23 G×2 inch needle fixed to a 20 ml syringe. The rats were returned to routine housing. No adverse reactions were observed.
On day 6 the rats were weighed (Mettler, Model PE3000, SN: F69474) and sorted into six treatment groups of ten animals each, based upon average weight. The animals were either dosed subcutaneously with 1 ml/kg colchicine or indomethacin, or orally with either 4 ml/kg or 8 ml/kg tranilast, or 8 ml/kg vehicle. Immediately after test material administration, the rats were intravenously injected with 2 ml/kg Evans Blue.
Thirty minutes after test material administration, the rats were anesthetized and five groups were injected into the air pouch with 15 ml MSU using an 18 G×1 inch needle fitted to a 20 ml syringe. The sixth group was injected with 15 ml saline. The rats were returned to their cages, no adverse affects were observed.
Four hours after MSU injection, the rats were anesthetized and 5 ml 10 U/ml heparinized saline was injected into the air pouch. The air pouch was gently massaged, the contents immediately removed using a 14 G×1 inch needle fitted to a 6 ml syringe, and the exudate volume recorded. An aliquot of the exudate was transferred to heparin-treated microtainer tubes (Becton Dickinson, Cat. 365958, lot 8093666, exp. June 09) for white blood cell (WBC) counting. The remainder of the exudate was centrifuged (Hermle Labrotechnik, Model Z200A, SN: 44060036), the supernatants removed and evaluated at OD620nm (Spectronic Unicam, Model 4000 1/4, SN: 3SGD003006) for plasma extravasation.

The mark [1] stands for this setting: Group 4: tranilast 200 mg/kg oral.
Where [2] appears, read: Group 5: tranilast 400 mg/kg oral.
Setting [3] is: oral tranilast 30 min before MSU, regardless of dose (200 or 400 mg/kg).

On to `COc1ccc(/C=C/C(=O)Nc2ccccc2C(=O)O)cc1OC` [Tranilast, 2-[[3-(3,4-dimethoxyphenyl)-1-oxo-2-propenyl]amino]benzoic acid], for which, under setting [1], the “Average Exudate Volume” value is 6.5 mL; the “Average Plasma Extravasation, OD620 nm” value came out at 0.697; the “Total WBC in Sample” value was found to be 15925556; the WBC turned out to be 2524444 cells/ml. In addition, under setting [2], the “Average Exudate Volume” value turned out to be 5.3 mL; the “Average Plasma Extravasation, OD620 nm” value is listed as 0.626; the “Total WBC in Sample” value is reported as 15162222; the WBC came out at 3144444 cells/ml. Further, under setting [3], the “inhibition of plasma extravasation” value is recorded as 60% and the “inhibition of white blood cell infiltration” value worked out at 95%.

These data come from patent US20100160351A1, “PHARMACEUTICAL COMPOSITIONS AND METHODS FOR TREATING HYPERURICEMIA AND RELATED DISORDERS” (NUON THERAPEUTICS, INC., priority 2008, published 2010).
